Legend:
Format in all cases: cell-based
[1] = target: T1, Human RAR-related Orphan Receptor Gamma (RORγ) (Homo sapiens, UniProt P51449); assay: RORγ assay (GAL4-RORγ hybrid luciferase reporter, Indigo Biosciences); settings: inverse-agonist activity, GAL4-RORγ reporter cells, 23 hours
T1 sequence (P51449 269-508 limits assumed): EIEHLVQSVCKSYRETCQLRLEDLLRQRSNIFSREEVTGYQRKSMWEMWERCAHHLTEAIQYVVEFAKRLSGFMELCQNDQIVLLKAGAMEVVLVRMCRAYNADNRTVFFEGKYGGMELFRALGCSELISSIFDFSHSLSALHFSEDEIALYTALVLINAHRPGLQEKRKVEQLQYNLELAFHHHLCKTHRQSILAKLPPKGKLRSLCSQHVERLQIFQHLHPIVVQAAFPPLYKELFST
Source text: B. RORγ Assay and Cell Viability
The RORγ assay system was purchased from Indigo Biosciences. This nuclear receptor assay utilizes a human cell line that has been engineered to express a hybrid form of the Human RAR-related Orphan Receptor Gamma (RORγ) at high levels. The N-terminal DNA binding domain (DBD) of the native RORγ receptor was substituted with the yeast GAL4-DBD to generate the GAL4-RORγ hybrid nuclear receptor. The reporter cell line is transfected with a plasmid that encodes the beetle luciferase gene under the control of the GAL4 upstream activating sequence (UAS). GAL4 binds to the UAS and increases transcription of downstream target genes. The GAL4-RORγ hybrid is constitutively active; therefore, the principle application of this reporter assay system is to screen test compounds to quantify inverse-agonist activities against human RORγ. Because the ligand binding domain (LBD) of RORγ is identical to the LBD of RORγt, this assay is an accurate surrogate for evaluating activity of experimental ligands against RORγt. To assess the RORγ inverse-agonist activity of the test compounds, reporter cells were plated in white 96-well plates in triplicate and were treated with DMSO (vehicle) or test compound (concentration ranges of 7.8-2000 nM) at 37° C. with 5% CO2 in a humidified atmosphere for 23 hours. After this incubation, luciferin was added to the wells and luciferase activity was determined by measuring the luminescence signal using a BMG Pherastar microplate reader. Viability was determined using the Live Cell Multiplex Assay (Indigo Biosciences). Values from test compound samples were normalized to those from DMSO-treated samples. Data were analyzed using GraphPad Prism version 6.00 for Windows (GraphPad Software, La Jolla Calif. USA). A non-linear regression analysis with log (inhibitor) vs. normalized response using a variable slope was applied to fit the data and determine the IC50 values for inhibition of RORγ and cell viability. Inhibition that is closely correlated with reduced viability is considered to be non-specific.

[2] = tested on: Nrf2 transcription factor; assay: AREc32 luciferase reporter assay; settings: Homo sapiens; AREc32 cells, 19 hours; concentration required to increase GST ARE luciferase reporter activity by 2-fold; read-out: NRF2 ARE 2-Fold (EC2×)
Source text: A. AREc32 Luciferase Reporter Assay
The AREc32 luciferase reporter assay allows for quantitative assessment of the endogenous activity of the Nrt2 transcription factor in cultured mammalian cells. AREc32 cells are derived from MCF-7 human breast carcinoma cells that were stably transfected with a reporter construct that contains the firefly luciferase gene located downstream of eight copies of the rat GSTA2 antioxidant response element (ARE) sequence (Wang et al., 2006; Concept Life Sciences Integrated Discovery and Development Services Ltd (CLSIDDS)). Active Nrf2 binds to the ARE sequences and increases expression of the firefly luciferase gene. To assess the Nrf2-activating potential of the test compounds, AREc32 cells were plated in black […] plates at a density of 20,000 cells per well in triplicate in DMEM+10% FBS+0.8 mg/mL Geneticin and incubated at 37° C. with 5% CO2 in a humidified atmosphere. The next day, cells were treated with DMSO (vehicle) or test compound (concentration ranges of 0.4-200 nM or 3.9-2000 nM) for 19 hours. Luciferase activity was determined using the ONE-Glo Luciferase assay (Promega). The luminescence signal was measured on a BMG Pherastar microplate reader. The mean luminescence value from test compound-treated wells was normalized to that from DMSO-treated wells and was represented as fold-induction. Data were analyzed using GraphPad Prism version 6.00 for Windows, GraphPad Software, La Jolla Calif. USA. A non-linear regression curve with log (agonist) vs. response using a variable slope was used to fit the data. Where applicable, a maximum threshold value of 50-fold over DMSO was set. EC2× values were interpolated from the curve. EC2× corresponds to the concentration of test compound required to increase GST ARE Luciferase reporter activity by 2-fold.

IL-17A = assay: IL-17 release from differentiated primary human T-cells (IL-17A HTRF assay); settings: primary human CD4+ T cells differentiated into Th17 cells, 45-hour incubation, IL-17A in supernatant; read-out: hIL17 IC50
Description: C. IL-17 Release from Differentiated Primary Human T-Cells and Cell Viability
Primary human cryopreserved CD4+ T Cells (Lonza) were thawed according to the manufacturer's recommendations and plated either in Lymphocyte Growth Medium-3 (LGM-3) or X-VIVO 20 media (Lonza) in 96-well tissue culture plates at a density of ˜2×10^5 cells per well, and allowed to recover for approximately 4 hours at 37° C. with 5% CO2 in a humidified atmosphere. After the recovery step, DMSO (vehicle) or test compound at doses ranging from 2 to 500 nM or 4 to 1000 nM in a three-fold dilution series was added to the cells. Three replicate wells were tested for each treatment condition. Final DMSO concentration in each well was 0.1%. Immediately after treatment, CD4+ T cells were activated by adding Dynabeads Human T-Activator CD3/CD28 (Life Technologies; bead-to-cell ratio of 1:2.5) and differentiated into Th17 cells by adding a mixture of the following cytokines: transforming growth factor-β (TGF-β, 5 ng/mL), IL-6 (20 ng/mL), IL-23 (20 ng/mL), and IL-1β (10 ng/mL). Undifferentiated control cells received only cytokine IL-2 (50 ng/mL). All human recombinant cytokines were purchased from R&D Systems. Following a 45-hour incubation at 37° C. with 5% CO2 in a humidified atmosphere, the plates were centrifuged for 3 minutes at 250×g, and half of the supernatant was transferred to anew plate to be used in the IL-17A assay (see below). Cell viability was assessed in the original plate using the CyQuant Direct Assay (Life Technologies). CyQuant reagent (an amount equal to 10% of remaining media volume) was added to the wells, and the plates were then incubated at 37° C. for 75 min. Fluorescence was read on a SpectraMax M2e spectrophotometer at 480 nm (excitation) and 535 nm (emission) wavelengths. CyQuant values from test compound samples were normalized to those from DMSO-treated samples. The concentration of IL-17A in the supernatant was measured using the Homogeneous Time-Resolved Fluorescence (HTRF) assay (Cisbio Bioassays) according to the manufacturer's protocol. The assay was performed at room temperature in low volume, solid white 384-well plates (Greiner Bio-One). Samples and standards (serially-diluted human recombinant IL-17A (0 to 5,000 pg/mL concentration range; Cisbio Bioassays) were incubated with the anti-human IL-17A antibody conjugates (the HTRF donor and acceptor pair) for 16 hours and fluorescence was measured using a Pherastar FS microplate reader (BMG Labtech) in the HTRF mode (excitation at 337 nm and emission at 665 nm and 620 nm). IL-17A levels were assessed in duplicate aliquots of supernatant from each well resulting in a total of six readings per test condition. The 665 nm/620 nm signal ratio was calculated and the concentration of IL-17A in each sample was determined by interpolation from the standard curve. The amount of IL-17A from test compound treated samples were normalized to that of the vehicle-treated samples, set to 100%. Data were analyzed using GraphPad Prism (GraphPad Software, La Jolla California USA). Concentrations of test compound were transformed by taking the logarithm of each concentration used. The IC50 values for compound-mediated reduction in IL-17A levels and cell viability were determined by non-linear regression analysis using the log(inhibitor) vs. normalized response with variable slope equation. Inhibition that is closely correlated with reduced viability is considered to be non-specific.

Compound `CC(C)c1ccc(-c2nc3c(n2Cc2ccccc2)CC[C@@H]2[C@@H](C)C(=O)C(C#N)=C[C@@]32C)cc1` [T166] has an IC50 [1] of 228 nM, an EC (2-fold) [2] of 1.68 µM and an IC50 (IL-17A) of 63 nM.
With `C[C@H]1C(=O)C(C#N)=C[C@@]2(C)c3nn(-c4ccc(-c5ccccc5)cc4)c(-c4ccccc4F)c3CC[C@H]12` [T123] the IC50 [1] was 139 nM, the EC (2-fold) [2] was 1.18 µM and the IC50 (IL-17A) was 50 nM.
For `Cc1cc(-c2ccc(-n3nc(-c4noc(C)n4)c4c3[C@]3(C)C=C(C#N)C(=O)[C@H](C)[C@H]3CC4)cc2)cnn1` [T110], the IC50 [1] was 193 nM, the EC (2-fold) [2] was 1.31 µM and the IC50 (IL-17A) was 126 nM.
In the case of `C[C@H]1C(=O)C(C#N)=C[C@@]2(C)c3nn(C4CCCCC4)c(-c4ccccc4)c3CC[C@H]12` [T1], the IC50 [1] is reported as 174 nM, the EC (2-fold) [2] is reported as 1.45 µM and the IC50 (IL-17A) is reported as 65 nM.
Work on `Cc1noc(-c2ccc(-n3nc(-c4ccc(F)cc4)c4c3[C@]3(C)C=C(C#N)C(=O)[C@H](C)[C@H]3CC4)cc2)n1` [T106] yielded an IC50 [1] of 83 nM, an EC (2-fold) [2] of 0.29 µM and an IC50 (IL-17A) of 27 nM.
Compound `Cc1noc(-c2nn(-c3ccc(-c4ccccc4)cc3)c3c2CC[C@@H]2[C@@H](C)C(=O)C(C#N)=C[C@@]32C)n1` [T96] has an IC50 [1] of 59 nM, an EC (2-fold) [2] of 0.258 µM and an IC50 (IL-17A) of 32 nM.
Work on `C[C@H]1C(=O)C(C#N)=C[C@@]2(C)c3c(c(-c4ccccc4)nn3-c3ccc(Cl)cc3)CC[C@H]12` [T13] yielded an IC50 [1] of 129 nM, an EC (2-fold) [2] of 0.274 µM and an IC50 (IL-17A) of 96 nM.
With `COCCn1c(-c2ccc(C(C)C)cc2)nc2c1CC[C@@H]1[C@@H](C)C(=O)C(C#N)=C[C@@]21C` [T164] the IC50 [1] was 237 nM, the EC (2-fold) [2] was greater than 2 µM and the IC50 (IL-17A) was 158 nM.
`C[C@H]1C(=O)C(C#N)=C[C@@]2(C)c3nc(-c4cccc(Br)c4)n(-c4cccc(F)c4)c3CC[C@H]12` [T145] was tested, and the IC50 [1] was 92 nM, the EC (2-fold) [2] was 0.755 µM and the IC50 (IL-17A) was 87 nM.
With `C[C@H]1C(=O)C(C#N)=C[C@@]2(C)c3c(c(-c4ccncn4)nn3-c3ccc(-c4cccnc4)cc3F)CC[C@H]12` [T53] the IC50 [1] was 57 nM, the EC (2-fold) [2] was 0.489 µM and the IC50 (IL-17A) was 88 nM.
`C[C@H]1C(=O)C(C#N)=C[C@@]2(C)c3nc(-c4ccc(N(C)C)cc4)n(-c4cccc(F)c4)c3CC[C@H]12` [T132] was tested, and the IC50 [1] was 110 nM, the EC (2-fold) [2] was 1.02 µM and the IC50 (IL-17A) was 114 nM.
In the case of `C[C@H]1C(=O)C(C#N)=C[C@@]2(C)c3nc(-c4ccccc4)n(-c4cccc(F)c4)c3CC[C@H]12` [T134], the IC50 [1] is reported as 143 nM, the EC (2-fold) [2] is reported as 0.832 µM and the IC50 (IL-17A) is reported as 183 nM.

Reference: patent US11993574B2, “Pyrazole and imidazole compounds for inhibition of IL-17 and RORgamma” (REATA PHARMACEUTICALS, INC., priority 2018, dated 2024)
